Values of other authors as cited in US7160580B2, “Organic acids incorporated edible antimicrobial films” (The Board of Trustees for the University of Arkansas, priority 2002, dated 2007).
Several values for one entry are separate records, joined by “and”; a condition that tells them apart may be missing. Equal entries are not always repeated.

Experiments:
[1] = tested on: Listeria monocytogens; conditions: 2% acid rinsed catfish fillets stored at 4° C., up to 5 days
[2] = tested on: Salmonella montevideo; conditions: citric acid 0.2 and 0.4% in cellulose based edible film; surface or core tissue of tomatoes; assignment of the two values not stated
[3] = tested on: Listeria monocytogens; conditions: lean beef tissue treated with 1.7% lactic acid, stored at 5° C. for 7 days
[4] = tested on: E. coli 0157:H7; conditions: lean beef tissue treated with 1.7% lactic acid, stored at 5° C. for 7 days

Structure (SMILES)	log reduction in Listeria monocytogens counts [1]	log reductions of Salmonella montevideo [2]	log reduction Listeria monocytogens [3]	log reduction E. coli 0157:H7 [4]
O=C(O)CC(O)(CC(=O)O)C(=O)O [citric acid]	less than one log reduction	2.18 log and 1.92 log		
Cl [hydrochloric acid]	less than one log reduction			
CC(O)C(=O)O (centres unmarked) [lactic acid]	less than one log reduction		2.03 log	0.91 log
O=C(O)CC(O)C(=O)O (centres unmarked) [malic acid]	less than one log reduction			
O=C(O)C(O)C(O)C(=O)O (centres unmarked) [tartaric acid]	less than one log reduction			
